Where a name gives a salt, the structure may show the parent alone. Marks after values point to notes of the source that are not given here.
Tested on: plasma metabolites
Details: rat, in vivo

Molecule: Nc1ccn([C@@H]2O[C@H](CO)[C@@H](O)[C@@H]2O)c(=O)n1 [Cytarabin]
- 3-Hydroxybutyrate, plasma, ratio vs control: 0.53 *
- 18-Hydroxy-11-deoxycorticosterone, plasma, ratio vs control: 0.13 *
- Choline plasmalogen No 02, plasma, ratio vs control: 1.11 *
- Citrate, plasma, ratio vs control: 0.81 *
- Isoleucine, plasma, ratio vs control: 1.1 *
- Ketoleucine, plasma, ratio vs control: 0.75 *
- Leucine, plasma, ratio vs control: 1.12 *
- Lignoceric acid (C24:0), plasma, ratio vs control: 1.31 *
- Taurine, plasma, ratio vs control: 1.27 *
- Tricosanoic acid (C23:0), plasma, ratio vs control: 1.3
- Valine, plasma, ratio vs control: 1.1 *

Molecule: Nc1ccccc1 [Aniline]
- 3,4-Dihydroxyphenylalanine (DOPA), ratio versus control: 0.81
- 3,4-Dihydroxyphenylglycol (DOPEG), ratio versus control: 0.84
- 3-Hydroxyindole, ratio versus control: 1.61
- 3-Indoxylsulfate, ratio versus control: 1.64
- 3-Methoxytyrosine, ratio versus control: 1.35
- Cytosine, ratio versus control: 1.62
- Ketoleucine, ratio versus control: 0.94
- Ribal, ratio versus control: 1.66
- biomarkers of table 12a and/or 12b (early indicators of blood anemia) altered as early as: 7 days

Molecule: C=CC[C@@H]1/C=C(\C)C[C@H](C)C[C@H](OC)[C@H]2O[C@@](O)(C(=O)C(=O)N3CCCC[C@H]3C(=O)O[C@H](/C(C)=C/[C@@H]3CC[C@@H](O)[C@H](OC)C3)[C@H](C)[C@@H](O)CC1=O)[C@H](C)C[C@@H]2OC [Tacrolimus]
- 18-Hydroxy-11-deoxycorticosterone, ratio versus control: 0.48 *
- Aspartate, ratio versus control: 1.42 *
- Cholesterolester No 01, ratio versus control: 1.05 *
- Glutamate, ratio versus control: 1.29 *
- Glycerol-3-phosphate, polar fraction, ratio versus control: 1.54 *
- Ketoleucine, ratio versus control: 0.85 *
- Pyruvate, ratio versus control: 0.77 *

Molecule: Nc1ccc(Cl)c([N+](=O)[O-])c1 [4-Chloro-3 nitroaniline]
- 3-Hydroxyindole, ratio versus control: 1.25
- 3-Indoxylsulfate, ratio versus control: 1.34
- 3-Methoxytyrosine, ratio versus control: 1.90
- Cytosine, ratio versus control: 1.75
- Ribal, ratio versus control: 1.89
- Serotonin (5-HT), ratio versus control: 9.50

Molecule: Lead acetate trihydrate
- Cholesterolester No 01, plasma, ratio vs control: 1.28 *
- Glucose, plasma, ratio vs control: 0.91
- Phosphatidylcholine (C16:0, C18:2), plasma, ratio vs control: 1.06 *
- Sphingomyelin (d18:2, C18:0), plasma, ratio vs control: 1.09 *
- TAG (C18:1, C18:2), plasma, ratio vs control: 1.33 *
- TAG (C18:2, C18:2), plasma, ratio vs control: 1.48 *
- TAG No 01, plasma, ratio vs control: 1.5 *

Molecule: COc1cccc2c1C(=O)c1c(O)c3c(c(O)c1C2=O)C[C@@](O)(C(=O)CO)C[C@@H]3O[C@H]1C[C@H](N)[C@H](O)[C@H](C)O1 [Adriamycin hydrochloride]
- 3-Hydroxybutyrate, plasma, ratio vs control: 0.66 *
- 18-Hydroxy-11-deoxycorticosterone, plasma, ratio vs control: 0.44 *
- Choline plasmalogen No 02, plasma, ratio vs control: 1.18 *
- Citrate, plasma, ratio vs control: 0.86
- Ketoleucine, plasma, ratio vs control: 0.69 *
- Lignoceric acid (C24:0), plasma, ratio vs control: 2.04 *
- Taurine, plasma, ratio vs control: 1.39 *
- Tricosanoic acid (C23:0), plasma, ratio vs control: 2.14 *

Molecule: C[C@H]1C[C@@H]2[C@H]([C@@H](O)C[C@@]3(C)[C@H]2CC[C@]3(O)C(=O)CO)[C@@]2(C)C=CC(=O)C=C12 [Methylprednisolone]
- 18-Hydroxy-11-deoxycorticosterone, ratio versus control: 0.15 *
- Aspartate, ratio versus control: 1.37 *
- Cholesterolester No 01, ratio versus control: 1.08 *
- Glutamate, ratio versus control: 1.11 *
- Glycerol-3-phosphate, polar fraction, ratio versus control: 1.4 *
- Ketoleucine, ratio versus control: 0.75 *
- Pyruvate, ratio versus control: 0.65 *

Molecule: O=P1(N(CCCl)CCCl)NCCCO1 (stereo not drawn) [Cyclophosphamide monohydrate]
- 3-Hydroxybutyrate, plasma, ratio vs control: 0.75 *
- 18-Hydroxy-11-deoxycorticosterone, plasma, ratio vs control: 0.16 *
- Choline plasmalogen No 02, plasma, ratio vs control: 1.13 *
- Citrate, plasma, ratio vs control: 0.78 *
- Isoleucine, plasma, ratio vs control: 1.23 *
- Ketoleucine, plasma, ratio vs control: 0.88 *
- Leucine, plasma, ratio vs control: 1.33 *
- Lignoceric acid (C24:0), plasma, ratio vs control: 1.29 *
- Taurine, plasma, ratio vs control: 1.21 *
- Tricosanoic acid (C23:0), plasma, ratio vs control: 1.44 *
- Valine, plasma, ratio vs control: 1.25 *

Molecule: Nc1ccccc1Cl [2-Chloroaniline]
- 3,4-Dihydroxyphenylalanine (DOPA), ratio versus control: 0.76
- 3,4-Dihydroxyphenylglycol (DOPEG), ratio versus control: 0.87
- 3-Hydroxyindole, ratio versus control: 1.40
- 3-Indoxylsulfate, ratio versus control: 1.68
- 3-Methoxytyrosine, ratio versus control: 1.48
- Cytosine, ratio versus control: 1.41
- Ketoleucine, ratio versus control: 0.60
- Ribal, ratio versus control: 1.24
- Serotonin (5-HT), ratio versus control: 2.64
- biomarkers of table 12a and/or 12b (early indicators of blood anemia) altered as early as: 7 days

Molecule: N.N.O=C([O-])C1(C(=O)[O-])CCC1.[Pt+2] [Carboplatin]
- 3-Hydroxybutyrate, plasma, ratio vs control: 0.74 *
- 4-Hydroxyphenylpyruvate, plasma, ratio vs control: 0.39 *
- 14-Methylhexadecanoic acid, plasma, ratio vs control: 0.72 *
- 21-Hydroxyprogesterone (11-Deoxycorticosterone), plasma, ratio vs control: 0.09 *
- Ascorbic acid, plasma, ratio vs control: 0.84 *
- Choline plasmalogen (C18, C20:4), plasma, ratio vs control: 0.89 *
- Corticosterone, plasma, ratio vs control: 0.31 *
- Fructose-6-phosphate, plasma, ratio vs control: 1.74 *
- Glucose-6-phosphate, plasma, ratio vs control: 2.2 *
- Histidine, plasma, ratio vs control: 1.17 *
- Indole-3-lactic acid, plasma, ratio vs control: 1.13 *
- Ornithine, plasma, ratio vs control: 1.11 *
- Phenylalanine, plasma, ratio vs control: 1.2 *
- Phosphate (inorganic and organic phosphates), plasma, ratio vs control: 1.57 *
- Phosphatidylcholine (C18:0, C18:2), plasma, ratio vs control: 1.22 *
- Progesterone, plasma, ratio vs control: 0.49*
- Taurine, plasma, ratio vs control: 1.47 *
- Threonic acid, plasma, ratio vs control: 1.51 *
- Tryptophan, plasma, ratio vs control: 1.17 *

Molecule: Nc1ccc(Cl)c([N+](=O)[O-])c1 [4-Chloro-3-nitroaniline]
- 3,4-Dihydroxyphenylalanine (DOPA), ratio versus control: 0.93
- 3,4-Dihydroxyphenylglycol (DOPEG), ratio versus control: 0.53
- Ketoleucine, ratio versus control: 0.61
- biomarkers of table 12a and/or 12b (early indicators of blood anemia) altered as early as: 7 days
